Assay results reported in the supplement of paper PMC11208160.

Experiment: recombinant barcode read abundance after kanamycin selection (control-corrected) (log10(CPM+1)); higher = more efficient recombination; sequences stand for … in AGTGCAGAGAAAATCGGCCAGTTTTCTCTGCCTGCAGTCCGCATGCCGT…AGATTTATGCAGCGGACTGCCTTTCTCCCAAAGTGATAAACCGGACAGTATCATGGACCGGTTTTCCCGGTAATCCGTATTTGCAAGGTTGGTTTCACT; site = the 11-nt target
Method: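 Pooled E. coli target-specificity screen for the IS621 bridge recombinase. Each library plasmid pairs an 11-nt target (CT core) with a bridge RNA whose target-binding loop (9-nt LTG + 4-nt RTG) is reprogrammed; the rest of the 177-nt WT IS621 bridge RNA scaffold is fixed. The plasmid is co-electroporated with a WT donor plasmid; recombinase is induced with 0.1 mM IPTG and recombinants are selected on kanamycin. Recombinant barcodes are sequenced, converted to CPM, averaged over two biological replicates and corrected by the unselected control CPM. Molecule = full bridge RNA written as DNA: LTG = specificity nt 1-9, RTG = reverse complement of specificity nt 8-11, in the WT scaffold.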
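Also: IS621 recombinase and bridge RNA in Escherichia coli cells.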

In order of falling “recombinant barcode read abundance (log10)” value:
1. ACATGTCCTTGGGTTCTAACCTGTTGCGT (site ACATGTCCTAC)  2.39
2. ACAGGTGCTTGGGTTCTAACCTGTTGCCT (site ACAGGTGCTAG)  1.98
3. ACAGTAGCTTGGGTTCTAACCTGTTGCTG (site ACAGTAGCTCA)  1.87
4. ACAGCTTCTTGGGTTCTAACCTGTTGCCT (site ACAGCTTCTAG)  1.53
5. ACACTGTCTTGGGTTCTAACCTGTTGCGG (site ACACTGTCTCC)  1.49
6. ACATGTCCTTGGGTTCTAACCTGTTGCGT (site ACATGTCCTAT)  1.48
7. ACAGCCGCTTGGGTTCTAACCTGTTGCCT (site ACAGCCGCTAG)  1.46
8. ACAGTCGCTTGGGTTCTAACCTGTTGCCT (site ACAGTCGCTAG)  1.4
9. ACATGAACTTGGGTTCTAACCTGTTGCAT (site ACATGAACTAT)  1.38
10. ACAGAGGCTTGGGTTCTAACCTGTTGCCG (site ACAGAGGCTCG)  1.12
11. ACATAAGCTTGGGTTCTAACCTGTTGCCT (site ACATAAGCTAG)  1.1
12. ACAGGCGCTTGGGTTCTAACCTGTTGCCT (site ACAGACGCTAG)  0.858
13. ACATGGGCTTGGGTTCTAACCTGTTGCCG (site ACATGGGCTCG)  0.695
14. ACAGGCGCTTGGGTTCTAACCTGTTGCCT (site ACAGGCGCTAG)  0.673
15. ACAGGCGCTTGGGTTCTAACCTGTTGCCT (site ACAGCCGCTAG)  0.617
16. ACACTGTCTTGGGTTCTAACCTGTTGCGG (site ACATTGTCTCC)  0.429
17. ACACTGTCTTGGGTTCTAACCTGTTGCGG (site ACAGTGTCTCC)  0.379
18. ACATGGGCTTGGGTTCTAACCTGTTGCCG (site ACATGTGCTCT)  0.266
19. ACATGTCCTTGGGTTCTAACCTGTTGCGT (site ACATGTCCTAG)  0.23
20. ACAGTCGCTTGGGTTCTAACCTGTTGCCT (site ACAGACGCTAG)  0.229
21. ACATGACCTTGGGTTCTAACCTGTTGCTT (site ACATGACCTAA)  0.223
22. ACAGCCGCTTGGGTTCTAACCTGTTGCCT (site ACAGACGCTAG)  0.221
23. ACAGTAGCTTGGGTTCTAACCTGTTGCTG (site ACAATAGCTCA)  0.181
24. ACAGAGGCTTGGGTTCTAACCTGTTGCCG (site ACTCAGGCTCG)  0.155
25. ACATGAACTTGGGTTCTAACCTGTTGCAT (site ACATGGACTAT)  0.141
26. ACATGTCCTTGGGTTCTAACCTGTTGCGT (site ACATGTCCTAA)  0.141
27. ACATATACTTGGGTTCTAACCTGTTGCTT (site CGTAGCCCTCC)  0.125
28. ACAGCCGCTTGGGTTCTAACCTGTTGCCT (site ACAGTCGCTAG)  0.118
29. ACATAAGCTTGGGTTCTAACCTGTTGCCT (site CATCGGACTCT)  0.116
30. ACATGAACTTGGGTTCTAACCTGTTGCAT (site ACATGCACTAT)  0.111
31. ACAGCCGCTTGGGTTCTAACCTGTTGCCT (site ACAGGCGCTAG)  0.108
32. ACAGTCGCTTGGGTTCTAACCTGTTGCCT (site ACAGCCGCTAG)  0.0854
33. ACAGCTTCTTGGGTTCTAACCTGTTGCCT (site ACAGCTACTAG)  0.0838
34. ACAGGTGCTTGGGTTCTAACCTGTTGCCT (site ACATGTGCTAG)  0.0807
35. ACATATACTTGGGTTCTAACCTGTTGCTT (site ACATATACTAA)  0.0772
36. ACAGTAGCTTGGGTTCTAACCTGTTGCTG (site ACACTAGCTCA)  0.0586
37. ACATGAACTTGGGTTCTAACCTGTTGCAT (site ACATGTACTAT)  0.0493
38. ACAGGCGCTTGGGTTCTAACCTGTTGCCT (site ACAGTCGCTAG)  0.0488
39. ACAGTAGCTTGGGTTCTAACCTGTTGCTG (site ACATTAGCTCA)  0.0402
40. ACATGACCTTGGGTTCTAACCTGTTGCTT (site ATATGAGCTAA)  0.0302
41. ACAGTCGCTTGGGTTCTAACCTGTTGCCT (site ACAGGCGCTAG)  0
